# Test results reported in patent publication US20260206813A1, “COMPOSITION FOR PROMOTING GHRELIN SECRETION” (Meiji Co., Ltd., priority 2022, published 2026).
# System: mouse stomach-derived ghrelin-secreting cell line MGN3-1
# Assay: Secretion of active (acylated) ghrelin from MGN3-1 cells, ELISA
# Type: cell-based
# Conditions: for Acylated ghrelin (% control): 2 hours culture, control = 100; for ghrelin secretion promoting effect: conclusion from Table 3, absence of a gastric lipase
# Experimental: The mouse stomach-derived ghrelin-secreting cell line MGN3-1 was seeded at 1×10^5 cells/well in a 96-well plate and cultured for 24 hours. After culturing, the cells were washed with 200 μL of Dulbecco's PBS, and 100 μL of each solution containing one test substance as indicated in Table 1 (buffer solution: 50 μM sodium octanoate/DMEM) was added (test group). The concentration of the test substance was applied at 10 μM or 30 μM. In the control group, 100 μL of a buffer solution without test substance was added. The number of trials performed, n, for each group was 4. After each group was cultured for 2 hours, a culture solution was recovered and centrifuged (800 g, 5 minutes, 4° C.) to obtain 80 μL of a supernatant. The supernatant was added with 8 μL of 1 N HCl and stored at −80° C. Next, active ghrelin (acylated ghrelin) in the sample was measured by the ELISA method (Ghrelin (Acylated) EIA Kit A05117, Bertin Pharma). Average values of measured values of the concentrations of ghrelin secreted when the test substances as indicated in Table 2 or Table 3 were added were calculated and indicated as values (%) assuming that the value of the control is 100 (Tables 2 and 3). The test was conducted again using the same testing method as described above, and the concentration of active ghrelin (acylated ghrelin) secreted in the sample was measured (FIGS. 2 and 3).
# Statistical analysis was performed using a t-test or one-way ANOVA (one-way analysis of variance), and a multiple comparison test was conducted using the Tukey-Kramer test.
# [1] = Table 2, test substance 10 μM, n=4
# [2] = Table 2, test substance 30 μM, n=4
# [3] = Table 3, test substance 30 μM, n=4
SMILES,Acylated ghrelin (% control) [1],Acylated ghrelin (% control) [2],Acylated ghrelin (% control) [3],ghrelin secretion promoting effect (30 μM),also measured
"CCCCCCCCCCCCCCCC(=O)OC(CO)CO [Test substance 4, 2-Monopalmitin]",168 % control,218 % control,389 % control,–,"increase of acylated ghrelin concentration as compared with the control (FIG. 1, repeat test, 30 μM, n=4, significant (p<0.05)): about 1.2 times"
"CCCCCCCCCCCCCCCC(=O)O [Test substance 1, Palmitic acid, reference compound]",82 % control,107 % control,–,–,"difference of acylated ghrelin from the control (Table 2, concentration not stated (10 μM and 30 μM tested)): no differences"
"CCCCCCCC/C=C\CCCCCCCC(=O)OCC(O)CO (centres unmarked) [Test substance 5, 1-Monoolein]",177 % control,209 % control,388 % control,–,–
"CCCCCCCC/C=C\CCCCCCCC(=O)O [Test substance 2, Oleic acid]",146 % control,138 % control,–,–,–
"CCCCCCCC/C=C\CCCCCCCC(=O)OC(CO)CO [Test substance 6, 2-Monoolein]",193 % control,206 % control,336 % control,–,–
"CCCCCCCC/C=C\CCCCCCCC(=O)OC(COC(=O)CCCCCCCCCCCCCCC)COC(=O)CCCCCCCCCCCCCCC [Test substance 10, 1,3-Dipalmitoyl-2-oleoylglycerol]",–,–,138 % control,ghrelin secretion promoting effect,"acylated ghrelin concentration as compared with the control (summary of Table 3, 30 μM): increased"
"CCCCCCCC/C=C\CCCCCCCC(=O)OCC(CO)OC(=O)CCCCCCCCCCCCCCC (centres unmarked) [Test substance 7, 1-Oleoyl-2-palmitoylglycerol]",–,–,237 % control,ghrelin secretion promoting effect,–
"CCCCCCCC/C=C\CCCCCCCC(=O)OCC(COC(=O)CCCCCCC/C=C\CCCCCCCC)OC(=O)CCCCCCCCCCCCCCC [Test substance 9, 1,3-Dioleoyl-2-palmitoylglycerol]",–,–,116 % control,ghrelin secretion promoting effect,"acylated ghrelin concentration as compared with the control (summary of Table 3, 30 μM): increased"
"CCCCCCCC/C=C\CCCCCCCC(=O)OC(CO)COC(=O)CCCCCCCCCCCCCCC (centres unmarked) [Test substance 8, 1-Palmitoyl-2-oleoylglycerol]",–,–,206 % control,ghrelin secretion promoting effect,–
"CCCCCCCCCCCCCCCC(=O)OCC(O)CO (centres unmarked) [Test substance 3, 1-Monopalmitin]",105 % control,134 % control,–,–,"difference of acylated ghrelin from the control (Table 2, 10 μM): no differences; acylated ghrelin concentration as compared with the control (Table 2, printed 30 M): increase"
